Values of other authors in US20100317666A1, “Composition Comprising An NK-1 Receptor Antagonist And An SSRI For The Treatment Of Tinnitus And Hearing Loss” (Glaxo Group Limited, priority 2006, published 2010).

Assays:
[1] = 8-12 weeks treatment; high dose (up to 50 mg/day)
[2] = iv infusion; transient effect

Structure (SMILES) | effects on tinnitus [1] | subject responding with tinnitus partial or complete inhibition [2]
Fc1ccc([C@@H]2CCNC[C@H]2COc2ccc3c(c2)OCO3)cc1 (relative stereo) [paroxetine, trans-(−)-3-[(1,3-benzodioxol-5-yloxy)methyl]-4-(4-fluorophenyl)piperidine] | Modest effects | –
CCN(CC)CC(=O)Nc1c(C)cccc1C [lidocaine] | – | up to 60%
